From patent publication US12156893B2, “Oral composition comprising lactic acid bacteria for regulating immune responses and methods related thereto” (The Regents of the University of California, priority 2016, dated 2024) come the findings set out here.

Assay type in all cases: cell-based, human
One assay has as its system MP2 tumors. Kind of assay: Chemotherapy-induced cell death of MP2 tumors. As to conditions: for Cell death of NK-differentiated MP2: MP2 differentiated with NK-supernatants.
A further assay concerns OSCSCs. Nature of the assay: Chemotherapy-induced cell death of NK-differentiated OSCSCs. As to conditions: OSCSCs differentiated with NK supernatants.
In a further assay the test system is PL12 or Capan. Kind of assay: NAC-induced cell death of well-differentiated pancreatic tumors. As to conditions: NAC added to well-differentiated PL12 or Capan.
Another assay deals with NK cells. Kind of assay: Production of cytokines, growth factors and chemokines by NK cells treated with bacterial strains (Bio-Plex 27-plex). The arrangement: unit not given here. How it is done:
Different strains of probiotic bacteria were tested for their ability to induce IFN-g as well as a number of important cytokines, chemokines and growth factors (Table 1). To assess the levels of each strain used in the combination we used an activation index established in the lab for the NK cells which consisted of the use of a specific ratio of several important cytokines and chemokines that prevented auto-immunity while enhancing significant activation of NK cells under pathologic conditions. Therefore, the strains were selected to: 1) provide regulated activation of NK cells when no activation of NK cells is desired; 2) when activated by cytokines and/or cross-linking of the important receptors which occurs during functional activation of NK cells in cancer is to induce maximal activation of NK cells; and 3) provide diversity for gut microflora. These criteria allow us to use bacteria to regulate the gut mucosal immunity in such a way that we will only increase NK activation when needed during infections or malignancies. In other words when there is no need for function of NK cells bacteria will regulate NK function to not induce inflammation; however, during need which occurs under the pathological conditions NK cells are triggered to function at the maximal levels. Such coordinated regulation of NK cell function should be effective in halting unwanted inflammation while providing effective and maximal immunity during disease.
Written informed consents, approved by UCLA Institutional Review Board (IRB), were obtained from healthy blood donors, and all procedures were approved by the UCLA-IRB. Peripheral blood was separated using Ficoll-Hypaque centrifugation, after which the white, cloudy layer, containing peripheral blood mononuclear cells (PBMC), was harvested, washed and re-suspended in RPMI 1640 (Invitrogen by Life Technologies, CA) supplemented with 10% FBS and plated on plastic tissue culture dishes. After 1-2 hours of incubation, non-adherent, human peripheral blood lymphocytes (PBL) were collected. NK cells were negatively selected and isolated from PBLs using the EasySep® Human NK cell enrichment kit purchased from Stem Cell Technologies (Vancouver, BC, Canada). Isolated NK cells were stained with anti-CD16 antibody, to measure NK cell purity using flow cytometric analysis. The isolated NK cell population was greater than 90% purity. Purified NK cells were cultured in RPMI Medium 1640 supplemented with 10% FBS (Gemini Bio-Products, CA), 1% antibiotic antimycotic, 1% sodium pyruvate, and 1% MEM non-essential amino acids (Invitrogen, Life Technologies, CA).
Purified NK cells from healthy donors were left untreated or treated with IL-2 (1000 units/ml) or the combination of anti-CD16 mAb (3 μg/ml) and IL-2 (1000 units/ml) in the presence or absence of bacterial strains at 1:5 ratio (NK cell: bacteria) for 12-18 hours. Afterwards, the levels of cytokines, growth factors and chemokines were determined using Bio-Plex Pro Human Cytokine 27-plex Assay Kit.

[1] abbreviates: Treatment NK (no activation), bacteria 1:5 NK cell:bacteria, 12-18 hours.
[2] abbreviates: Treatment NK + IL-2 (1000 units/ml), bacteria 1:5, 12-18 hours.
The mark [3] stands for this setting: Treatment NK + IL-2 + anti-CD16 mAb (3 μg/ml), bacteria 1:5, 12-18 hours.

Take `[NH2][Pt]([NH2])([Cl])[Cl]` [CDDP, Cisplatin]: in the assay with MP2 tumors, the “Cell death of NK-differentiated MP2” value is recorded as “significant susceptibility”. In addition, in the assay with OSCSCs, the “Cell death of NK-differentiated OSCSCs” value was “significant susceptibility”.
As for `CC(=O)O[C@H]1C(=O)[C@@]2(C)[C@H]([C@H](OC(=O)c3ccccc3)[C@]3(O)C[C@H](OC(=O)[C@H](O)[C@@H](NC(=O)c4ccccc4)c4ccccc4)C(C)=C1C3(C)C)[C@]1(OC(C)=O)CO[C@@H]1C[C@@H]2O` [Paclitaxel], the “Cell death of NK-differentiated MP2” value with MP2 tumors was “significant susceptibility”. For the same compound, the “Cell death of NK-differentiated OSCSCs” value in the assay with OSCSCs is reported as “higher cell death”.
In the case of `CC(=O)N[C@@H](CS)C(=O)O` [NAC, N-acetylcysteine], the Cell death result is recorded as “lower/slight effect on cell death” with MP2 tumors (NAC added to poorly-differentiated MP2) and “greater levels of cell death” in the assay on PL12 or Capan. Further, the “Cell death of NK-differentiated OSCSCs” value with OSCSCs is listed as “significantly increased Paclitaxel-mediated cell death”.
For “Streptococcus thermophilus [S. thermophilus]”, in the assay on NK cells (setting [1]), the Eotaxin stood at 40, the G-CSF is listed as 149, the GM-CSF worked out at 131 and the IFN-γ was determined as 785. Besides, in the assay with NK cells (setting [1]), the IL-1B is listed as 1381, the IL-1ra turned out to be 229, the IL-6 amounted to 10222 and the IL-8 is listed as 3326. Further, in the assay with NK cells (setting [1]), the IL-10 is on record as 63, the IL-12p70 is 515, the IL-13 came out at 9 and the IL-17 is recorded as 74. Further, in the assay on NK cells (setting [1]), the IP-10 was found to be 64, the MCP-1 amounted to 502, the RANTES worked out at 2580 and the TNF-α came to 18892. In the assay with NK cells (setting [2]), the Eotaxin is given as 21, the G-CSF stood at 87, the GM-CSF stood at 124 and the IFN-γ is 1188. Also, in the assay with NK cells (setting [2]), the IL-1B worked out at 390, the IL-1ra amounted to 465, the IL-6 was 1773 and the IL-8 stood at 1341. Moreover, in the assay on NK cells (setting [2]), the IL-10 was 17, the IL-12p70 turned out to be 132, the IL-13 was 9 and the IL-17 is on record as 65. Also, in the assay with NK cells (setting [2]), the IP-10 came out at 45, the MCP-1 was 169, the RANTES was 2197 and the TNF-α is reported as 2413. Also, in the assay on NK cells (setting [3]), the Eotaxin is 29, the G-CSF turned out to be 101, the GM-CSF amounted to 177 and the IFN-γ worked out at 2594. Besides, in the assay on NK cells (setting [3]), the IL-1B stood at 642, the IL-1ra worked out at 434, the IL-6 amounted to 2475 and the IL-8 is on record as 1841. Further, in the assay with NK cells (setting [3]), the IL-10 is 23, the IL-12p70 came to 163, the IL-13 was 15 and the IL-17 was 57. In the assay on NK cells (setting [3]), the IP-10 is 58, the MCP-1 is 332, the RANTES is recorded as 2097 and the TNF-α was determined as 4917.
